According to ChEMBL document CHEMBL1201862, “PubChem BioAssay data set” (2004):
Activity calls are given as the source filed them.

Columns and labels:
[1] = target: T1, Estrogen receptor beta (Homo sapiens, UniProt Q92731);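 also: recombinant ER-beta bound to coactivator SRC1 peptide in presence of estradiol agonist; inhibitors block coactivator peptide binding and lower the FRET signal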
[2] = target: Estrogen receptor (Homo sapiens, UniProt P03372);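 also: potency for inhibiting coactivator peptide recruitment to the receptor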
[3] = target: FAD-linked sulfhydryl oxidase ALR (Homo sapiens, UniProt P55789); assay: inhibitors of human ALR sulfhydryl oxidase, dose response, biochemical, H2O2 detection, luminescence, cherry-pick (AID 493248)
[4] = target: Ephrin type-A receptor 4 (Mus musculus, UniProt Q03137); assay: inhibitors of EphA4 binding to KYL peptide, primary screen, biochemical, colorimetric, mouse EphA4 (AID 689); assay type: functional
[5] = NIH-3T3 fibroblast cytotoxicity, dose response, cytotoxicity control, cell-based, fluorescence, Alamar Blue, secondary assay (AID 2327); assay type: functional;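 also: NIH-3T3 mouse fibroblasts cultured with fluconazole at 8 µg/mL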
[6] = test system: BJ; assay: cytotoxicity toward BJ-TERT fibroblasts, dose response, cell-based, RAS-independent, luminescence (AID 1933); assay type: functional; conditions: Homo sapiens
[7] = cells
[8] = target: Cytochrome P450 3A4 (Homo sapiens, UniProt P08684);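 also: CYP3A4 tested as one member of a cytochrome P450 panel screen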
[9] = inhibitors of intracellular T. cruzi replication, confirmation, NIH3T3 host cells, beta-gal luminescence (AID 2044); assay type: functional, cell-based;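 also: intracellular parasites grown in NIH/3T3 mouse fibroblasts as host cells; luminescent beta-galactosidase reporter signal from transgenic T. cruzi replicating inside host cells; inhibitors lower the luminescence signal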
[10] = target: Nonstructural protein 1 (Influenza A virus, UniProt Q194T2); assay type: functional, Influenza A virus (A/California/07/2009(H1N1))
[11] = cytotoxicity toward DRD oncogenic fibroblasts, dose response, cell-based, non-viral oncogenic, luminescence (AID 1934); assay type: functional; conditions: Homo sapiens
[12] = cytotoxicity toward NIH3T3 fibroblasts, dose response, counter-screen, cell-based, ATP luminescence, mouse fibroblasts (AID 2010); assay type: functional;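 also: cells exposed to compound for about 90 hours before reading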
[13] = test system: BJ; assay: cells; assay type: functional, cell-based; conditions: Homo sapiens
[14] = test system: BJ; assay: cytotoxicity toward BJ-TERT-LT-ST fibroblasts, dose response, cell-based, RAS-independent, luminescence (AID 1935); assay type: functional; conditions: Homo sapiens;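 also: BJ fibroblasts immortalized with TERT plus LT and ST oncogenes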
[15] = target: T2, Calpain-2 catalytic subunit (Sus scrofa, UniProt P43367); assay: pig calpain II inhibitor potency, dose response, biochemical, fluorogenic peptide substrate (AID 1420); assay type: functional
T2 sequence (P43367 whole entry): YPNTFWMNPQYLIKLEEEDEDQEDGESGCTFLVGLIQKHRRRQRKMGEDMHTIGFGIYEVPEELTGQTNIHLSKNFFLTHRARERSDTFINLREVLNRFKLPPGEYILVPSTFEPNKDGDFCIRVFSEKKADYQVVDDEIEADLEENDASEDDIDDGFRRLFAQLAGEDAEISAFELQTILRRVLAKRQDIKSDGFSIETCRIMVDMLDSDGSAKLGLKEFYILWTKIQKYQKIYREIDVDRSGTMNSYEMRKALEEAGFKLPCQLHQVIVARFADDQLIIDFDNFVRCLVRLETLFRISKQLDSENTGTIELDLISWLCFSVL

[16] = C. albicans growth with fluconazole, confirmation, fluorescence, retest (AID 2467); assay type: functional, cell-based
[17] = target: Voltage-dependent T-type calcium channel subunit alpha-1H (Homo sapiens, UniProt O95180); assay type: functional;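 also: channel activity triggered by adding a high calcium stimulation buffer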
[18] = cytotoxicity in HPDE-C7 cells, cell-based, fluorescence, HTS (AID 430); assay type: functional; conditions: Homo sapiens
[19] = cytotoxicity in KRAS-transformed pancreatic duct cells, primary screen, cell-based, fluorescence, HTS (AID 431); assay type: functional; conditions: Homo sapiens;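 also: cell line used: HPDE-C7K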
[20] = target: T1, Estrogen receptor beta; assay: ERβ–SRC-3 coactivator interaction inhibitors, confirmation, orthogonal assay, biochemical, ELISA, streptavidin-HRP readout (AID 1060)
[21] = target: T3, Microphthalmia-associated transcription factor (Homo sapiens, UniProt O75030); assay: TRPM1 promoter luciferase signal decrease, dose response, MITF inhibitor project, cell-based, SK-MEL-5, cherry-picked, set 3 (AID 493073); assay type: functional
T3 sequence (O75030 whole entry): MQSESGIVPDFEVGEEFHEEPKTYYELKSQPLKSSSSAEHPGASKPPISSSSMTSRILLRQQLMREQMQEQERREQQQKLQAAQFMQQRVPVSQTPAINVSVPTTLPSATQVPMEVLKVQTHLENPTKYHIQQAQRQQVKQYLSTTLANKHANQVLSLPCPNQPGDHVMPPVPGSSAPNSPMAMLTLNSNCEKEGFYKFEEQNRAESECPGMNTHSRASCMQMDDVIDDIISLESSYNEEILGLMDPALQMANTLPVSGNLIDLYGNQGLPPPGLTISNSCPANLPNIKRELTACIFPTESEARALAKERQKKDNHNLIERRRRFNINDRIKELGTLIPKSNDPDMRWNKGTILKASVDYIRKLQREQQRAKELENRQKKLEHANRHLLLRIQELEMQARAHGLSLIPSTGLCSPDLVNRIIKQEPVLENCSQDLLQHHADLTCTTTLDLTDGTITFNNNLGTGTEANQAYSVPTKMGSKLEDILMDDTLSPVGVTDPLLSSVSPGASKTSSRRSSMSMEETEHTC

[22] = cells; assay type: functional
[23] = THP-1 cell cytotoxicity, dose response, cytotoxicity control for non-replicating M. tuberculosis project (AID 489025); assay type: functional
[24] = target: T4, Orexin receptor type 2 (Homo sapiens, UniProt O43614); assay: Counterscreen assay for antagonists of the orexin 1 receptor (OX1R; HCRTR1): Homogeneous Time Resolved Fluorescence (HTRF)-based cell-based dose response assay for antagonists of the orexin 2 receptor (OX2R; HCRTR2), run by assay provider.; assay type: functional
T4 sequence (O43614 whole entry): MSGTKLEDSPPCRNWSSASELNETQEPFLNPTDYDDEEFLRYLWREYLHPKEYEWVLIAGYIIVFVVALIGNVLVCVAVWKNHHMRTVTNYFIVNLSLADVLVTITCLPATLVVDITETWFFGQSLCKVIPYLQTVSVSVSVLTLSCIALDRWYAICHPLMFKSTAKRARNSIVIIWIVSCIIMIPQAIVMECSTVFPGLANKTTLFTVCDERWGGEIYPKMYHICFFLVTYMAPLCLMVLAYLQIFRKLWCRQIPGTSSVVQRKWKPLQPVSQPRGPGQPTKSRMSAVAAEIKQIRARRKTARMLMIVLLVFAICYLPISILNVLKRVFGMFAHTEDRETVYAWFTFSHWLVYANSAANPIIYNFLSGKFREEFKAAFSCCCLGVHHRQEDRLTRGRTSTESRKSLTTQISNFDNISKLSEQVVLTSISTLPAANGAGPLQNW

[25] = target: T5, RNA-binding protein pos-1 (Caenorhabditis elegans, UniProt G5EF15); assay: inhibitors of POS-1/mex-3 RNA binding, dose response, biochemical, fluorescence polarization (AID 1964);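 also: purified POS-1 fused to maltose binding protein made in E. coli; potency of compounds blocking POS-1 binding to fluorescent RNA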
T5 sequence (G5EF15 whole entry): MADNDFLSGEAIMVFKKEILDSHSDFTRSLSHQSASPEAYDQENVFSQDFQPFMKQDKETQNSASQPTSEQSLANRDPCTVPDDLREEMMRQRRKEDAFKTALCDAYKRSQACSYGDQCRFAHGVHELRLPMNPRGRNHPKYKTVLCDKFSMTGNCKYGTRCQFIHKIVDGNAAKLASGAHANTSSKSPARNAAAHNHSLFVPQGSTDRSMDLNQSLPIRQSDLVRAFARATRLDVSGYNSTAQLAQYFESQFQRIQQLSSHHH

[26] = test system: BJ; assay: cytotoxicity toward Ras-transformed BJeLR fibroblasts, dose response, cell-based, alamar blue fluorescence, cherrypicked samples (AID 2631); assay type: functional; conditions: Homo sapiens;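 also: confirmatory dose-response assay in RAS-dependent BJ fibroblasts engineered with TERT, LT and ST, with cytotoxicity read by fluorescence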
[27] = target: T4, Orexin receptor type 2; assay: Counterscreen assay for antagonists of the orexin 1 receptor (OX1R; HCRTR1): Fluorescence-based cell-based dose response assay for antagonists of the orexin 2 receptor (OX2R; HCRTR2), run by assay provider.; assay type: functional
[28] = target: T6, Orexin/Hypocretin receptor type 1 (Homo sapiens, UniProt O43613); assay: Homogeneous Time Resolved Fluorescence (HTRF)-based cell-based high throughput dose response assay for antagonists of the orexin 1 receptor (OX1R; HCRTR1). [Related pubchem assays (depositor defined):AID434989, AID435008, AID463079, AID485270, AID492963, AID492964, AID492965, AID493232, AID504717, AID504718]; assay type: functional
T6 sequence (O43613 whole entry): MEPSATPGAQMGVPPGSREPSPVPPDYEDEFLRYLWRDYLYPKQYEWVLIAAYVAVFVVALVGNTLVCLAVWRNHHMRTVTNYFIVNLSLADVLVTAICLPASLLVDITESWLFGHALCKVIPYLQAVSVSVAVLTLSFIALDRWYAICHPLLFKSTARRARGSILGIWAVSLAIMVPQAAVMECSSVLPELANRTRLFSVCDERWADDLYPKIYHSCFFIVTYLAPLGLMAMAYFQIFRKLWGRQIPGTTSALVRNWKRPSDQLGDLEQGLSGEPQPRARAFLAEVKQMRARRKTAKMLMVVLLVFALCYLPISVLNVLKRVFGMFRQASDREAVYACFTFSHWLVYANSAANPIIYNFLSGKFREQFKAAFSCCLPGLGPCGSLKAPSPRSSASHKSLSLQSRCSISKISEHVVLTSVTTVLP

[29] = test system: Vero; assay: host cell cytotoxicity of antiviral hits, dose response, cytotoxicity control for West Nile virus antiviral project, secondary assay (AID 1650); assay type: functional; conditions: Chlorocebus sabaeus
[30] = target: T6, Orexin/Hypocretin receptor type 1; assay: Fluorescence-based cell-based high throughput dose response assay for antagonists of the orexin 1 receptor (OX1R; HCRTR1). [Related pubchem assays (depositor defined):AID434989, AID435008, AID463079, AID485270, AID492963, AID492964, AID492965, AID493232, AID504717, AID504718]; assay type: functional
[31] = test system: INS1; assay: beta cell apoptosis inhibitors, cytokine rescue, dose response, luminescence, retest (AID 449756); assay type: functional, cell-based; conditions: Rattus norvegicus;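 also: cell death triggered by IL-1 beta plus TNF-alpha plus IFN-gamma mixture; protective hits raise ATP signal compared with cytokine alone wells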
[32] = cells; assay type: functional, cell-based
[33] = cells; assay type: functional, cell-based; remark: listed apart in the source
[34] = target: T7, Zinc finger protein mex-5 (Caenorhabditis elegans, UniProt Q9XUB2); assay: MEX-5/TCR-2 RNA interaction inhibitors, dose response, biochemical, C. elegans, fluorescence polarization (AID 1960)
T7 sequence (Q9XUB2 whole entry): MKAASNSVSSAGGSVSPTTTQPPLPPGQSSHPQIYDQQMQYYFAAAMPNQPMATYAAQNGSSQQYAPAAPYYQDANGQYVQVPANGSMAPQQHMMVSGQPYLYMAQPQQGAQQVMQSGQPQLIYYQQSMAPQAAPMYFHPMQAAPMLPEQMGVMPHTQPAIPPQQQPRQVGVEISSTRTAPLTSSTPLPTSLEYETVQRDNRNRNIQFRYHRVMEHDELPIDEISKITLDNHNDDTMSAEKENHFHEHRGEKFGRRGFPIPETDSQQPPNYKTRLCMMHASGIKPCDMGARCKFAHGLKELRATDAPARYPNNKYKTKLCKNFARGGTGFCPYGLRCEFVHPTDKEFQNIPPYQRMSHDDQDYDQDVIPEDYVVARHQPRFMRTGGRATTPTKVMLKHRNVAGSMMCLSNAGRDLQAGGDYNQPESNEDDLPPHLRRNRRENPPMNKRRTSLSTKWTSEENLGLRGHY

[35] = Counterscreen for antagonists of the orexin 1 receptor (OX1R; HCRTR1): Fluorescence-based cell-based high throughput dose response assay to identify antagonists of the parental CHO cell line. [Related pubchem assays (depositor defined):AID434989, AID435008, AID463079, AID485270, AID492963, AID492964, AID492965, AID493232, AID504699, AID504701]; assay type: functional
[36] = test system: CHO-K1; assay: Counterscreen for antagonists of the orexin 1 receptor (OX1R; HCRTR1): Homogeneous time resolved fluorescence (HTRF)-based cell-based dose response assay to identify antagonists of the parental CHO-K1 cell line. [Related pubchem assays (depositor defined):AID434989, AID435008, AID463079, AID485270, AID492963, AID492964, AID492965, AID493232, AID504699, AID504701]; assay type: functional; conditions: Cricetulus griseus;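 also: potency for inhibition of ATP-stimulated IP1 production as antagonists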

T1 sequence (Q92731 whole entry): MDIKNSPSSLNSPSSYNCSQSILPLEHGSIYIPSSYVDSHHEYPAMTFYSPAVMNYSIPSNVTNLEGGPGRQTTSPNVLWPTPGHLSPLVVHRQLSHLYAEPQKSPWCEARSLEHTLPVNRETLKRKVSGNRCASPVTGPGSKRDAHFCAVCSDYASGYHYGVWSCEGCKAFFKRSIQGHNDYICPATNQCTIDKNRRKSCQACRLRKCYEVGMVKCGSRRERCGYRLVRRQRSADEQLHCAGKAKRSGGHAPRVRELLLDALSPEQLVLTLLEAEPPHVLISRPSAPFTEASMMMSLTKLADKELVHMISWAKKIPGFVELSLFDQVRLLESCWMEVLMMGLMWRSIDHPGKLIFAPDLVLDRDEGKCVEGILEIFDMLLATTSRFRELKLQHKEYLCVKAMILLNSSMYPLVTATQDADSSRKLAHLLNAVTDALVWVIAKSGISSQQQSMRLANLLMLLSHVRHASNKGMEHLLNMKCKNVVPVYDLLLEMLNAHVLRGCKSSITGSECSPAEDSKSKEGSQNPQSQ
Cytochrome P450 3A4, sequence (P08684 whole entry): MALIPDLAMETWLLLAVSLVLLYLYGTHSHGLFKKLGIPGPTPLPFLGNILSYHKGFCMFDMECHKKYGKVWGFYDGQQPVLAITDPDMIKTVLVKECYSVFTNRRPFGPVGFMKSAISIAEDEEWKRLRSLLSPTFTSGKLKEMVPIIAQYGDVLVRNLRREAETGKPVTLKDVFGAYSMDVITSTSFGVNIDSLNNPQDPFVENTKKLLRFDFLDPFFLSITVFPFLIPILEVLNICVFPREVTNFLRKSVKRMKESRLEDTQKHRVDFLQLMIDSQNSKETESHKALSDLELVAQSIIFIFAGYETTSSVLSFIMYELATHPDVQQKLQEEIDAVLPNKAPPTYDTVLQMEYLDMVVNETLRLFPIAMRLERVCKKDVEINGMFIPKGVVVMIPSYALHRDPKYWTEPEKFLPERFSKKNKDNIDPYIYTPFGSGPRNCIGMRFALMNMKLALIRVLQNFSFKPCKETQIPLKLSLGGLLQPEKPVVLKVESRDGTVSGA
Nonstructural protein 1, sequence (Q194T2 whole entry): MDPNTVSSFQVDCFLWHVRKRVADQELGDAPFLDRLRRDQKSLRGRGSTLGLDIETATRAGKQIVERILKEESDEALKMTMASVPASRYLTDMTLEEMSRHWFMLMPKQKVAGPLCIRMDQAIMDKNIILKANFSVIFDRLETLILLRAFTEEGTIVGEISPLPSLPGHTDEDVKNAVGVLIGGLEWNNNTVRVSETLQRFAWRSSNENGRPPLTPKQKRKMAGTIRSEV
Voltage-dependent T-type calcium channel subunit alpha-1H, sequence (O95180 whole entry): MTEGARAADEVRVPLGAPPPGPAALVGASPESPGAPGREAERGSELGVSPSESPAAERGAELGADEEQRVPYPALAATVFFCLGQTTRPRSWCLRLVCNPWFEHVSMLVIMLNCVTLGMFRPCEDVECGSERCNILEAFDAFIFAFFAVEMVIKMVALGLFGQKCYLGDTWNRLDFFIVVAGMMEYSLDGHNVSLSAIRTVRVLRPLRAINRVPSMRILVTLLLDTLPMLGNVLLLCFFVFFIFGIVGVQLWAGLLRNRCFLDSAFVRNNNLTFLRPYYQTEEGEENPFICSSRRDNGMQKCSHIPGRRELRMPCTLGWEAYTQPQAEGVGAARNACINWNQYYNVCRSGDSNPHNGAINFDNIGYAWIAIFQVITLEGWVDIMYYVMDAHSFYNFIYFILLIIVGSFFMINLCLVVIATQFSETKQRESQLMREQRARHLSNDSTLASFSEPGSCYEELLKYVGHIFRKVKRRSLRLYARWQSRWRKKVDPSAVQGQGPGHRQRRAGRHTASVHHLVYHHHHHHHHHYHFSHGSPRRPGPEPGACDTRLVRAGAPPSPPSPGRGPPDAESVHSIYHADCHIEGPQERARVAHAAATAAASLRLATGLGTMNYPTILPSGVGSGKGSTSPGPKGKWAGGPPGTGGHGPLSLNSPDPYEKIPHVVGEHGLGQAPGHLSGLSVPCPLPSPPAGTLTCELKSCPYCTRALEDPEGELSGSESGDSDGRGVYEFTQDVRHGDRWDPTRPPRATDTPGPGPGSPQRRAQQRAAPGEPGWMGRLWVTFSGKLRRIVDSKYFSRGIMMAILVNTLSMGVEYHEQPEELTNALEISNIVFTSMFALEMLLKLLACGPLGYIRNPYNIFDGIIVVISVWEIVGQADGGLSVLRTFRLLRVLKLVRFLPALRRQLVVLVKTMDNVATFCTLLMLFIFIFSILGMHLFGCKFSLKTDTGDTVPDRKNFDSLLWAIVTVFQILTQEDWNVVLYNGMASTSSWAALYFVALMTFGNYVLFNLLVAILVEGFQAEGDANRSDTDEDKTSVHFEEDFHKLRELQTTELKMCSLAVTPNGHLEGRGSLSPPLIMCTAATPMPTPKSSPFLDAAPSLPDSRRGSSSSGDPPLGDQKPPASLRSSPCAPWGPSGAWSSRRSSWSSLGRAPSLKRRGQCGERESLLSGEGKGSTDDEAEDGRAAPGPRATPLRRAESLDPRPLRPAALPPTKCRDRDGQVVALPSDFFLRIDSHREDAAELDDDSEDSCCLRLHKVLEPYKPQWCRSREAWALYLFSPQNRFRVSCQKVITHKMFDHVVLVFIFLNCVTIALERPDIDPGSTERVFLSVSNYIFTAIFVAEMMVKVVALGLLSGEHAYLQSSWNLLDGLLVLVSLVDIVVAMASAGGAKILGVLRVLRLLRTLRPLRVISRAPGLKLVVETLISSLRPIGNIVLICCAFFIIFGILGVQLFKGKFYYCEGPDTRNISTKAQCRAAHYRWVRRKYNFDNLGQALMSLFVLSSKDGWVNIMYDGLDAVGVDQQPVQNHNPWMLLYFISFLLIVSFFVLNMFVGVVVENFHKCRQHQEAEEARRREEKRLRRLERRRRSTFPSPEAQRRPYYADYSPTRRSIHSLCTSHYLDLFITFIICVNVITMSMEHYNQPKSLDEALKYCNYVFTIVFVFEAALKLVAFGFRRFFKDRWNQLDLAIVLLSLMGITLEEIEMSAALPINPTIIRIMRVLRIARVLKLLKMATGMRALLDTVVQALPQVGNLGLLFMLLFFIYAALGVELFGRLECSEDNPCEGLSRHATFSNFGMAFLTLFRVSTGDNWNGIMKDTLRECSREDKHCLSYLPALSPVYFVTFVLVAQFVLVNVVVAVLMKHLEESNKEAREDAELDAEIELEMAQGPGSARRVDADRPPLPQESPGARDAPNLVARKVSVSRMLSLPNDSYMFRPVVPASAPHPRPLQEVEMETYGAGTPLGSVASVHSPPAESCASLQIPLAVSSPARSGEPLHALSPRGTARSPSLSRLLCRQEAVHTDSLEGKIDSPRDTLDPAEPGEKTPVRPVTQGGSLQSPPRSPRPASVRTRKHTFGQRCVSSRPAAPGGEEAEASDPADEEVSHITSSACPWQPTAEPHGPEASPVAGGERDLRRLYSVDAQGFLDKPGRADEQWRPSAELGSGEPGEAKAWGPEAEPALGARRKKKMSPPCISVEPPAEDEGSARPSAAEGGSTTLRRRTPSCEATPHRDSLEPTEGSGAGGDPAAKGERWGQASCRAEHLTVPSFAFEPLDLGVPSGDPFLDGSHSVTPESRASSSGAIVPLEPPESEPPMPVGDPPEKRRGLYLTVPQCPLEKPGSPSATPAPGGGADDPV
FAD-linked sulfhydryl oxidase ALR, sequence (P55789 whole entry): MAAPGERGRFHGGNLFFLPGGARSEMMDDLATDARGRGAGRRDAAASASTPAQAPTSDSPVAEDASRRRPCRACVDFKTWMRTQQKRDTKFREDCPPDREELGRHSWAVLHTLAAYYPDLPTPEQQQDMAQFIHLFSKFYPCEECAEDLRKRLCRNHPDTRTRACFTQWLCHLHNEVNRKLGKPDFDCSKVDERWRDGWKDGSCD
Estrogen receptor, sequence (P03372 whole entry): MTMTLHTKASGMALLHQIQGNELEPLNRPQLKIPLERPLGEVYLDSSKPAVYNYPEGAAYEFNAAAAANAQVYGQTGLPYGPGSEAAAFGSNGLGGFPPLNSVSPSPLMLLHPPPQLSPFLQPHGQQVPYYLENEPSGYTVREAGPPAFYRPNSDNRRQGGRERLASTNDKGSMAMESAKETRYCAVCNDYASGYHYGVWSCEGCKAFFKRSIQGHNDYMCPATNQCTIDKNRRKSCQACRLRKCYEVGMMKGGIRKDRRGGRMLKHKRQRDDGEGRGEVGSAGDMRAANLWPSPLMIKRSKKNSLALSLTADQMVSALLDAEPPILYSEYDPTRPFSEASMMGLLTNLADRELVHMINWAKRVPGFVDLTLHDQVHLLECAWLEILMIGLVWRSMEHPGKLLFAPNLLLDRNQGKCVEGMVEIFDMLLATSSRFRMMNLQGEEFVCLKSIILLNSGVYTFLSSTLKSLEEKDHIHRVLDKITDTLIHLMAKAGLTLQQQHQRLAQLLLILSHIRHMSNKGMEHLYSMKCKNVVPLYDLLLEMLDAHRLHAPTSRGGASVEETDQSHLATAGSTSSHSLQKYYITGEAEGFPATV

COC(=O)c1sc2nc(-c3ccco3)ccc2c1N
IC50 [1]: 34.7 µM (not active) | IC50 [2]: > 50 µM (not active) | AC50 [3]: 2.84 µM (active)

CCN1/C(=C/c2ccc3cccc(C)c3[n+]2CC)Sc2ccccc21
IC50 [4]: 44.1 µM (active) | EC50 [5]: 18.6 µM (inconclusive) | EC50 [6]: 0.37 µM (inconclusive) | EC50 [7]: 0.031 µM (active) | AC50 [8]: 8.91 µM (inconclusive) | EC50 [9]: < 0.1 µM (active) | IC50 [10]: > 100 µM (active) | EC50 [11]: 13.6 µM (inconclusive) | EC50 [12]: 5.26 µM (active) | EC50 [13]: 1.19 µM (active) | EC50 [14]: 1.17 µM (inconclusive) | IC50 [15]: > 50 µM (not active) | EC50 [16]: < 0.03 µM (active) | EC50 [17]: 1.77 µM (active)

N#CC1=C(SCC(=O)Nc2cccc3cccnc23)NC(=O)C(C#N)C12CCCCC2 (stereo unspecified)
IC50 [1]: > 50 µM (not active) | EC50 [18]: > 20 µM (not active) | EC50 [19]: > 20 µM (not active) | IC50 [20]: > 50 µM (not active)

Cc1cc(C)cc(OCC(=O)N/N=C/c2ccc([N+](=O)[O-])o2)c1
EC50 [7]: 0.153 µM (active) | AC50 [21]: 7.12 µM (active) | EC50 [9]: < 0.1 µM (active) | EC50 [12]: 33.5 µM (active) | IC50 [22]: 2.7 µM (active) | CC50 [23]: 31.5 µM (active)

CCN(CC)c1ccc(/C=N/NC(=O)c2ccco2)c(O)c1
IC50 [24]: > 50 µM (inactive) | EC50 [25]: > 300 µM (not active) | EC50 [26]: 0.966 µM (active) | IC50 [27]: > 88.8 µM (inactive) | EC50 [5]: 2.76 µM (inconclusive) | IC50 [28]: 2.83 µM (active) | EC50 [6]: 2.7 µM (inconclusive) | CC50 [29]: 5.13 µM (active) | IC50 [30]: 4.03 µM (active) | AC50 [31]: 0.638 µM (active) | EC50 [32]: 9.18 µM (active) | EC50 [11]: 2.58 µM (active) | EC50 [33]: 10.3 µM (active) | EC50 [34]: > 300 µM (not active) | EC50 [13]: 3.34 µM (active) | EC50 [14]: 2.66 µM (active) | IC50 [35]: > 49.8 µM (inactive) | IC50 [36]: > 66.3 µM (inactive) | EC50 [16]: 0.787 µM (active)
